# What was measured:
# [1] = previous studies; can scavenge free radicals produced in vivo; cited from earlier work
# [2] = system: obese C57BL/6J male mice induced by high-fat diet for six months; assay: Body weight, blood glucose and adipose tissue volume of obese model mice (Embodiment 6); format: in vivo
# Method: C57BL/6J male mice at 6-8 weeks old were used as research subjects, and an experiment was carried out after adaptation to a SPF animal room for one week. The mice were fed with high-fat diet (with 60% of fat content) for six months to induce obesity phenotype in mice. After six months, the milk-derived polypeptide derivative shown by SEQ ID NO.5 (10 mg/kg) was administered by intraperitoneal injection once a day and continuously for 8 weeks. The mice were weighed every week for their weight changes, and at the same time, blood glucose changes of the mice were detected by a blood glucose meter. After intervention, the mice were killed, and then brown fat (BAT) at scapular, inguinal white adipose tissue (iWAT) and epididymal white adipose tissue (eWAT) were photographed. As mentioned above, H&E staining was also performed to observe morphological changes of lipid droplets, and expression of the UCP1 protein in adipose tissues was detected by immunohistochemistry and the Western blot methods.
# [3] = system: adipose tissues of obese model mice; assay: H&E staining of adipose tissues of obese model mice (Embodiment 6); format: in vivo; conditions: 10 mg/kg i.p. once a day for 8 weeks; FIG. 13
# Method: (§1) C57BL/6J male mice at 6-8 weeks old were used as research subjects, and an experiment was carried out after adaptation to a SPF animal room for one week. The mice were fed with high-fat diet (with 60% of fat content) for 10 weeks to induce obesity phenotype in mice. At the same time, different drug concentrations (5 mg/kg and 10 mg/kg) were provided, and the milk-derived polypeptide derivatives corresponding to SEQ ID NO.5 were administered by intraperitoneal injection twice a week, with dissolved normal saline (Vehicle) as a control. […] At the same time, total protein was extracted by a RIPA lysate, and expression of the UCP1 protein in the adipose tissues was detected by a Western blot method after quantifying, SDS-PAGE electrophoresis and transmembrane.
# (§2) C57BL/6J male mice at 6-8 weeks old were used as research subjects, and an experiment was carried out after adaptation to a SPF animal room for one week. […] The mice were weighed every week for their weight changes, and at the same time, blood glucose changes of the mice were detected by a blood glucose meter. […] As mentioned above, H&E staining was also performed to observe morphological changes of lipid droplets, and expression of the UCP1 protein in adipose tissues was detected by immunohistochemistry and the Western blot methods.
# [4] = system: brown fat (BAT) and inguinal subcutaneous white adipose tissues (iWAT); assay: H&E staining of adipose tissues of mice with high-fat diet (Embodiment 5); format: in vivo; conditions: 10 weeks; 5 and 10 mg/kg i.p. twice a week; FIG. 9
# Method: as §1, with “control. After 10 weeks of intervention, the mice were killed, and brown fat (BAT) at scapula and inguinal subcutaneous white adipose tissues (iWAT) were taken to be fixed with a adipose tissue fixing solution (Solarbio, G2185) for 24 hours. H&E staining and a UCP1 protein immunohistochemistry study were carried out after dehydration, paraffin embedding and sectioning. The H&E staining is performed using a kit (ab245800) from Abcam, and specific steps can be found in kit instructions. Tissue sections were subjected to the immunohistochemistry study after dewaxing and antigen repairing.” for “control.”
# [5] = system: C57BL/6J male mice fed with high-fat diet; assay: Fasting blood glucose, blood lipid and insulin levels of mice with high-fat diet (Embodiment 4); format: in vivo; conditions: continuous intervention for 10 weeks; 5 and 10 mg/kg i.p. twice a week; FIG. 8
# Method: (§3) C57BL/6J male mice at 6-8 weeks old were used as research subjects, and an experiment was carried out after adaptation to a SPF animal room for one week. The mice were fed with high-fat diet (with 60% of fat content) for 10 weeks to induce obesity phenotype in mice. At the same time, different drug concentrations (5 mg/kg and 10 mg/kg) of the milk-derived polypeptide derivatives corresponding to SEQ ID NO.5 were provided, and were administered by intraperitoneal injection twice a week, with resolvent saline (Vehicle) as a control. The changes of the blood glucose in the mice were detected by a Roche blood glucose meter, and changes of blood lipid and insulin level in the mice were detected by Applygen and Millipore commercial kits respectively.
# [6] = system: C57BL/6J male mice fed with high-fat diet; assay: Glucose tolerance test (GTT) in mice with high-fat diet (Embodiment 3); format: in vivo; conditions: FIG. 6
# Method: as §3, with “dissolved normal” for “resolvent”, “control.” for “control. The changes of the blood glucose in the mice were detected by a Roche blood glucose meter, and changes of blood lipid and insulin level in the mice were detected by Applygen and Millipore commercial kits respectively.”
# (§4) Insulin Sensitivity: The mice are fasted overnight for 12 hours, and at a next day, insulin was injected by intraperitoneal injection at a standard of 0.75 U per kg of weight. Blood samples were taken from tail vein at 0 min, 15 min, 30 min, 60 min, 90 min and 120 min after the injection, and changes of the blood glucose in the mice were measured by a blood glucose meter to evaluate the insulin sensitivity of the mice. Glucose tolerance test: after fasting for 6 hours, the mice were injected with glucose by intraperitoneal injection at a concentration of 1 g per kg of weight. Blood samples were taken from tail vein at 0 min, 15 min, 30 min, 60 min, 90 min and 120 min after the injection, and changes of the blood glucose in the mice were measured by a blood glucose meter to evaluate the glucose tolerance of the mice.
# UCP1 protein [7] = assay: UCP1 protein immunohistochemistry and Western blot in adipose tissues of mice with high-fat diet (Embodiment 5); format: in vivo
# Method: C57BL/6J male mice at 6-8 weeks old were used as research subjects, and an experiment was carried out after adaptation to a SPF animal room for one week. The mice were fed with high-fat diet (with 60% of fat content) for 10 weeks to induce obesity phenotype in mice. At the same time, different drug concentrations (5 mg/kg and 10 mg/kg) were provided, and the milk-derived polypeptide derivatives corresponding to SEQ ID NO.5 were administered by intraperitoneal injection twice a week, with dissolved normal saline (Vehicle) as a control. After 10 weeks of intervention, the mice were killed, and brown fat (BAT) at scapula and inguinal subcutaneous white adipose tissues (iWAT) were taken to be fixed with a adipose tissue fixing solution (Solarbio, G2185) for 24 hours. H&E staining and a UCP1 protein immunohistochemistry study were carried out after dehydration, paraffin embedding and sectioning. The H&E staining is performed using a kit (ab245800) from Abcam, and specific steps can be found in kit instructions. Tissue sections were subjected to the immunohistochemistry study after dewaxing and antigen repairing. Specifically, the sections were incubated overnight with UCP1 antibody (1:200, Proteintech) at 4 degrees. The antibody was diluted with PBS containing 1% of BSA, and a color reaction was carried out next day with a DAB kit from Abcam. Specific operations can be referred to kit experimental steps. At the same time, total protein was extracted by a RIPA lysate, and expression of the UCP1 protein in the adipose tissues was detected by a Western blot method after quantifying, SDS-PAGE electrophoresis and transmembrane.
# UCP1 protein [8] = assay: UCP1 protein immunohistochemistry and Western blot in adipose tissues of obese model mice (Embodiment 6); format: in vivo; conditions: 10 mg/kg i.p. once a day for 8 weeks; FIG. 13 and FIG. 14
# Method: as §1, §2
# [9] = system: C57BL/6J male mice fed with high-fat diet; assay: Insulin sensitivity (ITT) in mice with high-fat diet (Embodiment 3); format: in vivo
# Method: as §3, with “dissolved normal” for “resolvent”, “control.” for “control. The changes of the blood glucose in the mice were detected by a Roche blood glucose meter, and changes of blood lipid and insulin level in the mice were detected by Applygen and Millipore commercial kits respectively.”
# as §4
# [10] = system: C57BL/6J male mice fed with high-fat diet; assay: Weight increasing of mice with high-fat diet (Embodiment 2); format: in vivo; conditions: 5 and 10 mg/kg i.p. twice a week
# Method: C57BL/6J male mice at 6-8 weeks old were used as research subjects, and an experiment was carried out after adaptation to a SPF animal room for one week. The mice were fed with high-fat diet (with 60% of fat content) for 10 weeks to induce obesity phenotype in mice. At the same time, different drug concentrations (5 mg/kg and 10 mg/kg) were provided, and the milk-derived polypeptide derivatives corresponding to SEQ ID NO.5 were administered by intraperitoneal injection twice a week, with dissolved normal saline (Vehicle) as a control. The mice are weighed to obtain body weight and their food intake calculated every week. After the mice were killed, brown fat (BAT) at scapular, inguinal white adipose tissue (iWAT) and epididymal white adipose tissue (eWAT) were photographed, weighed to obtain wet weight and lean mass of the mice was calculated.
# [11] = 10 mg/kg i.p. once a day for 8 weeks after six months high-fat diet, FIG. 11
sequence,measurement,setting,value
"VKEAMAPK [Val-Lys-Glu-Ala-Met-Ala-Pro-Lys, isolated linear milk-derived polypeptide from β-casein 98-105 amino acids]",antioxidant activity,[1],antioxidant activity
"GRKKRRQRRRPPQQVKEAMAPK [SEQ ID NO.5, theone tested in Embodiments 2-6]",body weight of the obese mice,[2]; [11],significantly reduced
same,fasting blood glucose,[2]; [11],decreased
same,tissue volumes of white fat (subcutaneous and abdominal) and brown fat (scapular areas),"[2]; 10 mg/kg i.p. once a day for 8 weeks, after dissection, FIG. 12",significantly reduced
same,sizes of the lipid droplets in the two tissues (H&E staining),[3],decreased significantly
same,morphology sizes of lipid droplets in brown fat and white adipose tissues (H&E staining),[4],significantly reduced
same,blood lipid (triglyceride) level,[5],significantly reduced
same,fasting blood glucose level,[5],significantly reduced
same,insulin level,[5],significantly reduced
same,area under the curve (GTT),[6]; 10 mg/kg for 10 weeks,significant statistical significance
same,blood glucose levels within 2 hours after glucose injection vs control,"[6]; continuous intervention for 10 weeks, 5 and 10 mg/kg, glucose 1 g per kg i.p.",lower than those of the control group
same,effect on UCP1 protein content at low drug concentration (Western blot),"UCP1 protein [7]; 5 mg/Kg, FIG. 10",good effect
same,UCP1 immunohistochemistry brown areas in brown and white adipose tissues,"UCP1 protein [7]; 10 weeks, 5 and 10 mg/kg i.p. twice a week, FIG. 9",significantly increased
same,contents of the UCP1 protein in brown and white adipose tissues (Western blot),"UCP1 protein [7]; 10 weeks, 5 and 10 mg/kg, certain dose-dependent relationship, FIG. 10",significantly increased
same,expression of UCP1 in two kinds of adipose tissues (immunohistochemistry and Western blot),UCP1 protein [8],increased
same,insulin sensitivity (ITT),"[9]; 5 mg/kg, FIG. 7",certain statistical significance
same,blood glucose levels within 2 hours after insulin injection vs control,"[9]; continuous intervention for 10 weeks, 5 and 10 mg/kg, insulin 0.75 U per kg i.p.",lower than those of the control group
same,fat content (wet weight test of the adipose tissues),"[10]; 10 weeks, FIG. 4",decreased significantly
same,lean mass of the mice,"[10]; 10 weeks, FIG. 5",no significant change
same,volumes of subcutaneous and abdominal white adipose tissues,"[10]; after dissection, 10 weeks, FIG. 3",decreased significantly
same,weight of the mice vs control group (Vehicle),[10]; by 10th week,significantly lower

# Source: US20230040594A1, “MILK-DERIVED POLYPEPTIDE DERIVATIVE, COMPOSITION AND METHOD FOR PREVENTING AND TREATING OBESITY” (Nanjing Maternity and Child Health Care Hospital, priority 2021, published 2023)
